Measured values as given in the SangsterLogP compilation.

Assay: method code SF-AS, from DOI: 10.1016/0045-6535(94)00381-4
Work on `Cc1ccc(S(=O)(=O)C2(C(=O)OC(C)C)CCCC2)cc1` yielded a logP of 2.88.
`COC(=O)C1(S(=O)(=O)c2ccccc2)CCCCC1` showed a logP of 2.3.
`COC(=O)C1(S(=O)(=O)c2ccc(Br)cc2)CCCCC1` gave a logP of 2.94.
With `CC(C)OC(=O)C1(S(=O)(=O)c2ccc([N+](=O)[O-])cc2)CCCCC1` the logP was 2.84.
For `COC(=O)C1(S(=O)(=O)c2ccccc2)CCC1`, the logP was 1.63.
Molecule `COC(=O)C1(S(=O)(=O)c2ccccc2)CC1` has a logP of 1.43.
For `COC(=O)C1(S(=O)(=O)c2ccc(Br)cc2)CCC1`, the logP was 2.45.
For `COC(=O)CS(=O)(=O)c1ccc([N+](=O)[O-])cc1Cl`, the logP was 1.45.
Molecule `COC(=O)CS(=O)(=O)c1ccc(Br)cc1` has a logP of 1.52.
In the case of `CCOC(=O)C1(S(=O)(=O)c2ccc(C)cc2)CCC1`, the logP is reported as 2.31.
In the case of `COC(=O)C1(S(=O)(=O)c2ccc(C)cc2)CCCCC1`, the logP is reported as 2.54.
`COC(=O)CS(=O)(=O)c1ccc(Cl)cc1` gave a logP of 1.31.
In the case of `Cc1ccc(S(=O)(=O)C2(C(=O)OC(C)C)CCCCC2)cc1`, the logP is reported as 3.21.
`COC(=O)CS(=O)(=O)c1ccccc1` gave a logP of 0.93.
In the case of `Cc1ccc(S(=O)(=O)C2(C(=O)OC(C)C)CC2)cc1`, the logP is reported as 2.52.
For `COC(=O)C1(S(=O)(=O)c2ccc(C)cc2)CC1`, the logP was 1.77.
With `CCOC(=O)C1(S(=O)(=O)c2ccc(C)cc2)CC1` the logP was 2.23.
For `COC(=O)C1(S(=O)(=O)c2ccccc2)CCCC1`, the logP was 1.98.
In the case of `CC(C)OC(=O)C1(S(=O)(=O)c2ccc(Cl)cc2)CC1`, the logP is reported as 2.64.
`CC(C)OC(=O)C1(S(=O)(=O)c2ccc([N+](=O)[O-])cc2)CC1` showed a logP of 2.05.
Work on `COC(=O)C1(S(=O)(=O)c2ccc(Br)cc2)CC1` yielded a logP of 2.32.
Work on `COC(=O)C1(S(=O)(=O)c2ccc(Br)cc2)CCCC1` yielded a logP of 2.73.
With `CC(C)(C)OC(=O)C1(S(=O)(=O)c2ccc(Cl)cc2)CC1` the logP was 2.68.
`CC(C)OC(=O)C1(S(=O)(=O)c2ccc(Cl)cc2)CCCC1` showed a logP of 3.16.
Work on `COC(=O)C1(S(=O)(=O)c2ccc(Cl)cc2)CCC1` yielded a logP of 2.28.
For `CC(C)OC(=O)CS(=O)(=O)c1ccc(Cl)cc1`, the logP was 2.04.
With `CC(C)OC(=O)C1(S(=O)(=O)c2ccc([N+](=O)[O-])cc2)CCC1` the logP was 2.36.
For `CC(C)OC(=O)C1(S(=O)(=O)c2ccc([N+](=O)[O-])cc2)CCCCCC1`, the logP was 3.41.
Molecule `CC(C)OC(=O)C1(S(=O)(=O)c2ccc(Cl)cc2)CCCCCC1` has a logP of 3.83.
With `COC(=O)C1(S(=O)(=O)c2ccc([N+](=O)[O-])cc2)CC1` the logP was 1.33.
`CC(C)OC(=O)C1(S(=O)(=O)c2ccc(Cl)cc2)CCCCC1` showed a logP of 3.49.
`COC(=O)C1(S(=O)(=O)c2ccc(Cl)cc2)CC1` showed a logP of 2.03.
